Test results published in ChEMBL document CHEMBL4266024, “Phytochemical Study of Senecio volckmannii Assisted by CASE-3D with Residual Dipolar Couplings and Isotropic 1H/13C NMR Chemical Shifts” (2018).

Experiments:
Assay type in all cases: functional
[1] = system: HeLa; test: Growth inhibition of human HeLa cells after 48 hrs by sulforhodamine B assay
[2] = system: T47D; test: Growth inhibition of human T47D cells after 48 hrs by sulforhodamine B assay
[3] = system: HBL-100; test: Growth inhibition of human HBL100 cells after 48 hrs by sulforhodamine B assay; conditions: HBL-100, 48 h
[4] = system: SW1573; test: Growth inhibition of human SW1573 cells after 48 hrs by sulforhodamine B assay; conditions: SW1573, 48 h
[5] = system: A549; test: Growth inhibition of human A549 cells after 48 hrs by sulforhodamine B assay; conditions: A549, 48 h
[6] = system: WiDr; test: Growth inhibition of human WiDr cells after 48 hrs by sulforhodamine B assay

| Structure (SMILES) | GI50 [1] | GI50 [2] | GI50 [4] | GI50 [5] | GI50 [3] | GI50 [6] |
| --- | --- | --- | --- | --- | --- | --- |
| CC(C)=C1C[C@@]2(C)C(=CC1=O)[C@@H](O)CC[C@@H]2C | > 10 µM | > 10 µM | > 10 µM | > 10 µM | > 10 µM | > 10 µM |
| CC(C)=C1C[C@@]2(C)[C@H](CCC(=O)[C@@H]2C)CC1=O (relative stereo) | > 10 µM | > 10 µM | > 10 µM | > 10 µM | > 10 µM | > 10 µM |
| CC(=O)C1=C[C@@]2(C)C(=CC1=O)CCC[C@@H]2C (relative stereo) | > 10 µM | > 10 µM | > 10 µM | > 10 µM | > 10 µM | > 10 µM |
| C[C@H]1CCCC2=CC(=O)C(C(C)(C)O)=C[C@@]21C | > 10 µM | > 10 µM | > 10 µM | > 10 µM | > 10 µM | > 10 µM |

Second part, led by results:

| GI50 [1] | GI50 [2] | GI50 [4] | GI50 [5] | Structure (SMILES) | GI50 [3] | GI50 [6] |
| --- | --- | --- | --- | --- | --- | --- |
| > 10 µM | > 10 µM | > 10 µM | > 10 µM | CC(C)=C1C[C@@]2(C)C(=CC1=O)CCC[C@@H]2C | > 10 µM | > 10 µM |
| > 10 µM | > 10 µM | > 10 µM | > 10 µM | CC(C)=C1C[C@@]2(C)C(=CC1=O)[C@H](O)CC[C@@H]2C | > 10 µM | > 10 µM |
| > 10 µM | > 10 µM | > 10 µM | > 10 µM | CC1=C2C[C@@]3(C)[C@H](C[C@@]2(O)OC1=O)C(=O)CC[C@@H]3C | > 10 µM | > 10 µM |
| > 10 µM | > 10 µM | > 10 µM | > 10 µM | C[C@H]1CC[C@@H](O)C2=CC(=O)C(C(C)(C)O)=C[C@@]21C (relative stereo) | > 10 µM | > 10 µM |
| > 10 µM | > 10 µM | > 10 µM | > 10 µM | C[C@H]1CCCC2=CC(=O)[C@H](C(C)(C)O)C[C@@]21C | > 10 µM | > 10 µM |
